Reference: patent US20260062412A1, “NITROGEN-CONTAINING HETEROCYCLIC COMPOUND HAVING MYT1 INHIBITORY ACTIVITY” (CHUGAI SEIYAKU KABUSHIKI KAISHA, priority 2023, published 2026)

Target: MYT1 protein (Homo sapiens (Human), UniProt Q99640)
Assay: Test for binding to ATP binding site of MYT1 (Kinase Tracer 178 / Eu-Anti-GST antibody TR-FRET)
Conditions: ATP binding site of MYT1, 30 minutes at room temperature
Description: The binding capacity of each compound to the ATP binding site of MYT1 Kinase protein was evaluated. 5× Kinase Buffer A (manufactured by Thermo Fisher Scientific Inc., PV3189) was diluted to 5 times with Milli-Q water, thereby preparing 1× Kinase Buffer. Using 1× Kinase Buffer, MYT1 protein (manufactured by Carna Biosciences, Inc.) was diluted to a concentration of 0.005 μM and Eu-Anti-GST Antibody was diluted to a concentration of 1 μM. […] To a 96 well-plate, 2.5 μL of a compound diluted with DMSO was added. […] The mixture was well mixed and then allowed to stand at room temperature for 30 minutes. Thereafter, fluorescence wavelengths of 665 nm and 615 nm generated by irradiation with excitation light of 340 nm were detected using Envision (manufactured by PerkinElmer). The proportion of Tracer bound to MYT1 protein was calculated for every condition by dividing the intensity at the fluorescence wavelength of 665 nm by the intensity at the fluorescence wavelength of 615 nm.

Sequence of MYT1 protein (Q99640 whole entry): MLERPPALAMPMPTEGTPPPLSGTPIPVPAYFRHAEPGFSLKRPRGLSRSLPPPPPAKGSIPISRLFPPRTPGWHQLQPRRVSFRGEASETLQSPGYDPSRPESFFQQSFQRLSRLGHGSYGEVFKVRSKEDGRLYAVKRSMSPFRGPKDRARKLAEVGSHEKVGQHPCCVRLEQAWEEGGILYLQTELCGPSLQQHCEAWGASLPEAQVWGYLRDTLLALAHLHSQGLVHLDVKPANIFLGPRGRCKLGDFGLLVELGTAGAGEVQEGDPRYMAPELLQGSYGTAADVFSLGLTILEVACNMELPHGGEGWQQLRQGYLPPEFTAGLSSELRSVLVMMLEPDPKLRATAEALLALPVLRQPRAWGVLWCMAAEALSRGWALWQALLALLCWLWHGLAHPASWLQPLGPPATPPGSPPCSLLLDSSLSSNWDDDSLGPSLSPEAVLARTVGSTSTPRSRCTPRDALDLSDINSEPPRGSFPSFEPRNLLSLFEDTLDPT

SMILES | IC50 [nM]
Nc1c(-c2cc(F)c(F)c3[nH]ncc23)c2cc(OC(F)(F)F)c3ncccc3c2[nH]c1=O [Compound C72, 3-Amino-4-(6,7-difluoro-1H-indazol-4-yl)-6-(trifluoromethoxy)-1H-1,7-phenanthrolin-2-one] | 6.2
Nc1c(-c2ccc(F)c3[nH]ncc23)c2cc(N3CC4(COC4)C3)c3ncccc3c2[nH]c1=O [Compound C118, 3-Amino-4-(7-fluoro-1H-indazol-4-yl)-6-(2-oxa-6-azaspiro[3,3]heptan-6-yl)-1H-1,7-one] | 2.3
C[C@@H](Oc1cc2c(-c3ccc(F)c4[nH]ncc34)c(N)c(=O)[nH]c2c2cccnc12)C(F)(F)F [Compound C27, 3-Amino-4-(7-fluoro-1H-indazol-4-yl)-6-[(2R)-1,1,1-trifluoropropan-2-yl]oxy-1H-1,7-phenanthrolin-2-one] | 4.4
Nc1c(-c2cccc(O)c2)c2cc(-c3ccccc3)c3ccccc3c2[nH]c1=O [Compound B5, 3-Amino-4-(3-hydroxyphenyl)-6-phenyl-1H-benzo[h]quinolin-2-one] | 420
Nc1c(-c2cc(F)c(F)c3[nH]ncc23)c2cc(OC3CCC3)c3ncccc3c2[nH]c1=O [Compound C206, 3-Amino-6-cyclobutyloxy-4-(6,7-difluoro-1H-indazol-4-yl)-1H-1,7-phenanthrolin-2-one] | 4.1
Nc1c(-c2ccc(F)c3[nH]ncc23)c2cc(Br)c3cncnc3c2[nH]c1=O [Compound J1, 8-Amino-5-bromo-7-(7-fluoro-1H-indazol-4-yl)-10H-pyrido[3,2-h]quinazolin-9-one] | 7.3
COc1cc2c(-c3ccc(F)c4[nH]ncc34)c(N)c(=O)[nH]c2c2ccc(=O)[nH]c12 [Compound T4, 3-Amino-4-(7-fluoro-1H-indazol-4-yl)-6-methoxy-1,7-dihydro-1,7-phenanthroline-2,8-dione] | 3.2
Nc1c(-c2ccc(F)c3[nH]ncc23)c2cc(OCC3(C(F)(F)F)CC3)c3ncccc3c2[nH]c1=O [Compound C44, 3-Amino-4-(7-fluoro-1H-indazol-4-yl)-6-[[1-(trifluoromethyl)cyclopropyl]methoxy]-1H-1,7-one] | 5.1
Nc1c(-c2ccc(F)c3[nH]ncc23)c2cc(N3CCS(=O)(=O)CC3)c3ncccc3c2[nH]c1=O [Compound C124, 3-Amino-6-(1,1-dioxo-1,4-thiazinan-4-yl)-4-(7-fluoro-1H-indazol-4-yl)-1H-1,7-phenanthrolin-2-one] | 3.4
Nc1c(-c2cc[nH]c(=O)c2)c2cc(Cl)ccc2[nH]c1=O [Compound A68, 3-Amino-6-chloro-4-(2-oxo-1H-pyridin-4-yl)-1H-quinolin-2-one] | 8000
CC(C)Nc1cc2c(-c3ccc(F)c4[nH]ncc34)c(N)c(=O)[nH]c2c2nccnc12 [Compound G9, 8-Amino-7-(7-fluoro-1H-indazol-4-yl)-5-(propan-2-ylamino)-10H-pyrido[2,3-f]quinoxalin-9-one] | 4.4
Nc1c(-c2ccc(F)c3[nH]ncc23)c2cc(C3CC4(CC4)C3)c3ncccc3c2[nH]c1=O [Compound C175, 3-Amino-4-(7-fluoro-1H-indazol-4-yl)-6-spiro[2.3]hexan-5-yl-1H-1,7-phenanthrolin-2-one] | 16
CC(C)CCOc1cc2c(-c3ccc(F)c4[nH]ncc34)c(N)c(=O)[nH]c2c2cccnc12 [Compound C10, 3-Amino-4-(7-fluoro-1H-indazol-4-yl)-6-(3-methylbutoxy)-1H-1,7-phenanthrolin-2-one] | 2.3
Nc1c(-c2cc(F)c(F)c3[nH]ncc23)c2cc(O)c3ncccc3c2[nH]c1=O [Compound C199, 3-Amino-4-(6,7-difluoro-1H-indazol-4-yl)-6-hydroxy-1H-1,7-phenanthrolin-2-one] | 3.8
N#CC1(Cc2cc3c(-c4ccc(F)c5[nH]ncc45)c(N)c(=O)[nH]c3c3cccnc23)CC1 [Compound C177, 1-[[3-Amino-4-(7-fluoro-1H-indazol-4-yl)-2-oxo-1H-1,7-phenanthrolin-6-yl]methyl]cyclopropane-1-carbonitrile] | 2.1
Nc1c(-c2ccc(F)c3[nH]ncc23)c2cc(OC3CCC(F)(F)CC3)c3ncccc3c2[nH]c1=O [Compound C48, 3-Amino-6-(4,4-difluorocyclohexyl)oxy-4-(7-fluoro-1H-indazol-4-yl)-1H-1,7-phenanthrolin-2-one] | 10
Nc1c(-c2ccc(Cl)c3[nH]ncc23)c2cc(C(=O)N3CCOCC3)ccc2[nH]c1=O [Compound A38, 3-Amino-4-(7-chloro-1H-indazol-4-yl)-6-(morpholine-4-carbonyl)-1H-quinolin-2-one] | 20
Cc1cc2c(-c3ccc(F)c4[nH]ncc34)c(N)c(=O)[nH]c2c2cc(B(O)O)cnc12 [Compound C189, [3-Amino-4-(7-fluoro-1H-indazol-4-yl)-6-methyl-2-oxo-1H-1,7-phenanthrolin-9-yl]boronic acid] | 18
Nc1c(-c2ccc(F)c3[nH]ncc23)c2cc(N3CCC(F)(F)CC3)c3ncccc3c2[nH]c1=O [Compound C126, 3-Amino-6-(4,4-difluoropiperidin-1-yl)-4-(7-fluoro-1H-indazol-4-yl)-1H-1,7-phenanthrolin-2-one] | 4.7
N#C[C@H]1C[C@@H](Oc2cc3c(-c4ccc(F)c5[nH]ncc45)c(N)c(=O)[nH]c3c3cccnc23)C1 [Compound C33, (1s,3s)-3-[[3-Amino-4-(7-fluoro-1H-indazol-4-yl)-2-oxo-1H-1,7-phenanthrolin-6-yl]oxy]cyclobutane-1-carbonitrile] | 3.5
CCN1CCC(c2cc3c(-c4ccc(F)c5[nH]ncc45)c(N)c(=O)[nH]c3c3ncccc23)CC1 [Compound D26, 3-Amino-6-(1-ethylpiperidin-4-yl)-4-(7-fluoro-1H-indazol-4-yl)-1H-1,10-phenanthrolin-2-one] | 3.3
Nc1c(-c2ccc(F)c3[nH]ncc23)c2cc(Br)c3ccsc3c2[nH]c1=O [Compound L1, 7-Amino-4-bromo-6-(7-fluoro-1H-indazol-4-yl)-9H-thieno[3,2-h]quinolin-8-one] | 3
O=c1[nH]c2c(cc(Br)c3nccnc32)c(-c2ccc(F)c3[nH]ncc23)c1Cl [Compound G2, 5-Bromo-8-chloro-7-(7-fluoro-1H-indazol-4-yl)-10H-pyrido[2,3-f]quinoxalin-9-one] | 270
COc1ccc2c(n1)c(OC)cc1c(-c3ccc(F)c4[nH]ncc34)c(N)c(=O)[nH]c12 [Compound T1, 3-Amino-4-(7-fluoro-1H-indazol-4-yl)-6,8-dimethoxy-1H-1,7-phenanthrolin-2-one] | 4.9
COc1cccc(-c2c(N)c(=O)[nH]c3c2ccc2ccccc23)c1 [Compound B1, 3-Amino-4-(3-methoxyphenyl)-1H-benzo[h]quinolin-2-one] | 5600
Nc1c(-c2ccc(F)c3[nH]ncc23)c2cc(C3CCC(F)(F)C3)c3ncccc3c2[nH]c1=O (stereo not drawn) [Compound C162, 3-Amino-6-(3,3-difluorocyclopentyl)-4-(7-fluoro-1H-indazol-4-yl)-1H-1,7-phenanthrolin-2-one] | 12
Nc1c(-c2ccc(F)c3[nH]ncc23)c2cc(OCC3(F)CCC3)c3ncccc3c2[nH]c1=O [Compound C56, 3-Amino-6-[(1-fluorocyclobutyl)methoxy]-4-(7-fluoro-1H-indazol-4-yl)-1H-1,7-phenanthrolin-2-one] | 1.7
